Assay results from US5043166A, “Liposome/anthraquinone drug composition and method” (priority 1989, dated 1991).
Like-named read-outs stand apart in the source and are kept apart here. Values belong to the compound of their own block, whether it stands above or below them.

Legend:
[1] = peroxidation in liposomes with chelators; type: physicochemical
[2] = chemical modification of DXR in stored liposomes; type: physicochemical; details: stored anoxic 1 day at 4° C.
Experimental: The liposomes were stored under anoxic conditions for 1 day at 4° C., as above. Chemical modification of the drug was detected both by fluorescence emission spectroscopy and by assaying the change in drug toward a more lipophilic species, as described in Section A above.

[3] = prior to or concurrent with DXR administration; cited from earlier work
[4] = Fe^3+; cited from earlier work
[5] = Mg^2+; cited from earlier work
[6] = Co^2+; cited from earlier work
[7] = Zn^2+; cited from earlier work
[8] = Cu^2+; cited from earlier work
[9] = Ca^2+; cited from earlier work
[10] = Fe^2+; cited from earlier work
[11] = in vivo; cited from earlier work
[12] = Ni^2+; cited from earlier work

Compound: O=C(O)CN(CCN(CC(=O)O)CC(=O)O)CC(=O)O [EDTA, ethylenediaminetetraacetic acid]
- effect on peroxidation damage in liposomes [1]: peroxidation-stimulating effect

Compound: Cc1c(C)c2c(c(C)c1O)CCC(C)(CCCC(C)CCCC(C)CCCC(C)C)O2 (stereo not drawn) [α-T, alpha-tocopherol]
- protection against drug modification [2]: moderate protections
- reduction of cardiotoxicity [3]: effective in reducing cardiotoxicity

- protection against drug modification [2]: moderate protections
Compound: CC(=O)N(O)CCCCCNC(=O)CCC(=O)N(O)CCCCCNC(=O)CCC(=O)N(O)CCCCCN [ferrioxamine, ferrioxamine B]
- Binding Affinity [4]: 10^31
- Binding Affinity [5]: 10^4
- Binding Affinity [6]: 10^11
- Binding Affinity [7]: 10^11
- Binding Affinity [8]: 10^14
- Binding Affinity [9]: 10^2
- Binding Affinity [10]: 10^10
- safety for parenteral use in humans [11]: proven safe for parenteral use in humans
- Binding Affinity [12]: 10^10

Compound: O=C(O)CN(CCN(CC(=O)O)CC(=O)O)CCN(CC(=O)O)CC(=O)O [DTPA]
- effect on anthraquinone modification in vitro ([1]; in the presence of lipids and ferric iron): protective effect
